A value given as a limit tells only on which side of the number the result lay.

Test system in the first data set: not given
Assay: not given
Conditions: not given
Take `COC(=O)O[C@H]1C[C@H]2OC[C@@]2(OC(C)=O)C2[C@H](OC(=O)c3ccccc3)[C@]3(O)C[C@H](OC(=O)[C@H](O)[C@@H](NC(=O)OC(C)(C)C)c4cccs4)C(C)=C([C@@H](O)C(=O)[C@@]21C)C3(C)C` (some centres unmarked) [Compound 4262, 3′-Desphenyl-3′-(2-thienyl)-7-methoxycarbonyl taxotere]: the melting point was in the range of 142.5 to 143 °C.

The next data set deals with HCT116. Put plainly: In vitro cytotoxicity measured by the cell colony formation assay. The class given is cell-based. To be noted: HCT116 cells; drug concentration producing 50% inhibition of colony formation; 72 h with drug at 37° C., colonies counted after 7 days; read-out: IN VITRO ID 50 (nm) HCT116. How it is done: Four hundred cells (HCT116) were plated in 60 mm Petri dishes containing 2.7 mL of medium (modified McCoy's 5a medium containing 10% fetal bovine serum and 100 units/mL penicillin and 100 µg/mL streptomycin). The cells were incubated in a CO2 incubator at 37° C. for 5 h for attachment to the bottom of Petri dishes. The compounds identified in Example 2 were made up fresh in medium at ten times the final concentration, and then 0.3 mL of this stock solution was added to the 2.7 mL of medium in the dish. The cells were then incubated with drugs for 72 h at 37° C. At the end of incubation the drug-containing media were decanted, the dishes were rinsed with 4 mL of Hank's Balance Salt Solution (HBSS), 5 mL of fresh medium was added, and the dishes were returned to the incubator for colony formation. The cell colonies were counted using a colony counter after incubation for 7 days.
Consider `C/C=C/C(=O)N[C@@H](c1ccco1)[C@@H](O)C(=O)O[C@H]1C[C@@]2(O)[C@@H](OC(=O)c3ccccc3)C3[C@](C)(C(=O)[C@H](O)C(=C1C)C2(C)C)[C@@H](OC(=O)OCC)C[C@H]1OC[C@@]31OC(C)=O` (some centres unmarked) [Compound 4818], for which the IC50 was below 1 nM. Turning to `C/C=C/C(=O)N[C@@H](c1cccs1)[C@@H](O)C(=O)O[C@H]1C[C@@]2(O)[C@@H](OC(=O)c3ccccc3)C3[C@](C)(C(=O)[C@H](O)C(=C1C)C2(C)C)[C@@H](OC(=O)OCC)C[C@H]1OC[C@@]31OC(C)=O` (some centres unmarked) [Compound 4855], the IC50 is below 1 nM.

With `C/C=C/C(=O)N[C@@H](c1ccoc1)[C@@H](O)C(=O)O[C@H]1C[C@@]2(O)[C@@H](OC(=O)c3ccccc3)C3[C@](C)(C(=O)[C@H](O)C(=C1C)C2(C)C)[C@@H](OC(=O)OC)C[C@H]1OC[C@@]31OC(C)=O` (some centres unmarked) [Compound 4877], the IC50 was below 1 nM. Same read-out and setting: with `C/C=C/C(=O)N[C@@H](c1ccoc1)[C@@H](O)C(=O)O[C@H]1C[C@@]2(O)[C@@H](OC(=O)c3ccccc3)C3[C@](C)(C(=O)[C@H](O)C(=C1C)C2(C)C)[C@@H](OC(=O)OCC)C[C@H]1OC[C@@]31OC(C)=O` (some centres unmarked) [Compound 4904] the figure was below 10 nM. The same measure, in the same setting: with `C/C=C/C(=O)N[C@@H](c1ccsc1)[C@@H](O)C(=O)O[C@H]1C[C@@]2(O)[C@@H](OC(=O)c3ccccc3)C3[C@](C)(C(=O)[C@H](O)C(=C1C)C2(C)C)[C@@H](OC(=O)OC)C[C@H]1OC[C@@]31OC(C)=O` (some centres unmarked) [Compound 4969] the figure was below 1 nM; with `CCOC(=O)O[C@H]1C[C@H]2OC[C@@]2(OC(C)=O)C2[C@H](OC(=O)c3ccccc3)[C@]3(O)C[C@H](OC(=O)[C@H](O)[C@@H](NC(=O)OCC(C)C)c4ccsc4)C(C)=C([C@@H](O)C(=O)[C@@]21C)C3(C)C` (some centres unmarked) [Compound 4979], below 10 nM. Still for that read-out and setting: with `C/C=C/C(=O)N[C@@H](c1ccsc1)[C@@H](O)C(=O)O[C@H]1C[C@@]2(O)[C@@H](OC(=O)c3ccccc3)C3[C@](C)(C(=O)[C@H](O)C(=C1C)C2(C)C)[C@@H](OC(=O)OCC)C[C@H]1OC[C@@]31OC(C)=O` (some centres unmarked) [Compound 4999] the figure was below 1 nM; with `CCOC(=O)O[C@H]1C[C@H]2OC[C@@]2(OC(C)=O)C2[C@H](OC(=O)c3ccccc3)[C@]3(O)C[C@H](OC(=O)[C@H](O)[C@@H](NC(=O)OC(C)(C)C)C4CC4)C(C)=C([C@@H](O)C(=O)[C@@]21C)C3(C)C` (some centres unmarked) [Compound 5165], below 1 nM. As to `COC(=O)O[C@H]1C[C@H]2OC[C@@]2(OC(C)=O)C2[C@H](OC(=O)c3ccccc3)[C@]3(O)C[C@H](OC(=O)[C@H](O)[C@@H](NC(=O)OCC(C)C)C4CC4)C(C)=C([C@@H](O)C(=O)[C@@]21C)C3(C)C` (some centres unmarked) [Compound 5211], the IC50 is below 10 nM. For `CCOC(=O)O[C@H]1C[C@H]2OC[C@@]2(OC(C)=O)C2[C@H](OC(=O)c3ccccc3)[C@]3(O)C[C@H](OC(=O)[C@H](O)[C@@H](NC(=O)OCC(C)C)C4CC4)C(C)=C([C@@H](O)C(=O)[C@@]21C)C3(C)C` (some centres unmarked) [Compound 5225], the IC50 was below 10 nM.

For `CC(=O)O[C@@]12CO[C@@H]1C[C@H](OC(=O)OCc1ccccc1)[C@@]1(C)C(=O)[C@H](O)C3=C(C)[C@@H](OC(=O)[C@H](O)[C@@H](NC(=O)OC(C)(C)C)c4ccco4)C[C@@](O)([C@@H](OC(=O)c4ccccc4)C12)C3(C)C` (some centres unmarked) [Compound 5433], the IC50 was below 1 nM. Same read-out and setting: with `CC(=O)O[C@@]12CO[C@@H]1C[C@H](OC(=O)OCc1ccccc1)[C@@]1(C)C(=O)[C@H](O)C3=C(C)[C@@H](OC(=O)[C@H](O)[C@@H](NC(=O)C=C(C)C)c4ccco4)C[C@@](O)([C@@H](OC(=O)c4ccccc4)C12)C3(C)C` (some centres unmarked) [Compound 5466] the figure was below 1 nM; with `CCOC(=O)O[C@H]1C[C@H]2OC[C@@]2(OC(C)=O)C2[C@H](OC(=O)c3ccccc3)[C@]3(O)C[C@H](OC(=O)[C@H](O)[C@@H](NC(=O)C=C(C)C)c4ccco4)C(C)=C([C@@H](O)C(=O)[C@@]21C)C3(C)C` (some centres unmarked) [Compound 6151], below 1 nM; with `CCC(C)(C)OC(=O)N[C@@H](c1ccco1)[C@@H](O)C(=O)O[C@H]1C[C@@]2(O)[C@@H](OC(=O)c3ccccc3)C3[C@](C)(C(=O)[C@H](O)C(=C1C)C2(C)C)[C@@H](OC(=O)OCc1ccccc1)C[C@H]1OC[C@@]31OC(C)=O` (some centres unmarked) [Compound 6246], below 1 nM. The same measure, in the same setting: with `C/C=C/C(=O)N[C@@H](c1cccs1)[C@@H](O)C(=O)O[C@H]1C[C@@]2(O)[C@@H](OC(=O)c3ccccc3)C3[C@](C)(C(=O)[C@H](O)C(=C1C)C2(C)C)[C@@H](OC(=O)OCc1ccccc1)C[C@H]1OC[C@@]31OC(C)=O` (some centres unmarked) [Compound 6566] the figure was below 10 nM.

The data set is the same for the next values; noted with them: Homo sapiens, HCT-116; read-out: IN VITRO ID 50 (nm) HCT116.
For `COC(=O)O[C@H]1C[C@H]2OC[C@@]2(OC(C)=O)C2[C@H](OC(=O)c3ccccc3)[C@]3(O)C[C@H](OC(=O)[C@H](O)[C@@H](NC(=O)OC(C)(C)C)c4cccs4)C(C)=C([C@@H](O)C(=O)[C@@]21C)C3(C)C` (some centres unmarked) [Compound 4262, 3′-Desphenyl-3′-(2-thienyl)-7-methoxycarbonyl taxotere], the IC50 is below 1 nM.

For the origin of these results see patent US7226944B2, “Taxanes having a C7 carbonate substituent” (FSU Research Foundation, Inc., priority 2000, dated 2007).
